Values of other authors in US20080255200A1, “SUBSTITUTED BENZIMIDAZOLES” (AUSPEX PHARMACEUTICALS, INC., priority 2007, published 2008).

Target: gastric H^+, K^+-ATPase (Homo sapiens, UniProt P20648)
Details: intragastric pH over 4, orally administered

Sequence of gastric H^+, K^+-ATPase (P20648 whole entry): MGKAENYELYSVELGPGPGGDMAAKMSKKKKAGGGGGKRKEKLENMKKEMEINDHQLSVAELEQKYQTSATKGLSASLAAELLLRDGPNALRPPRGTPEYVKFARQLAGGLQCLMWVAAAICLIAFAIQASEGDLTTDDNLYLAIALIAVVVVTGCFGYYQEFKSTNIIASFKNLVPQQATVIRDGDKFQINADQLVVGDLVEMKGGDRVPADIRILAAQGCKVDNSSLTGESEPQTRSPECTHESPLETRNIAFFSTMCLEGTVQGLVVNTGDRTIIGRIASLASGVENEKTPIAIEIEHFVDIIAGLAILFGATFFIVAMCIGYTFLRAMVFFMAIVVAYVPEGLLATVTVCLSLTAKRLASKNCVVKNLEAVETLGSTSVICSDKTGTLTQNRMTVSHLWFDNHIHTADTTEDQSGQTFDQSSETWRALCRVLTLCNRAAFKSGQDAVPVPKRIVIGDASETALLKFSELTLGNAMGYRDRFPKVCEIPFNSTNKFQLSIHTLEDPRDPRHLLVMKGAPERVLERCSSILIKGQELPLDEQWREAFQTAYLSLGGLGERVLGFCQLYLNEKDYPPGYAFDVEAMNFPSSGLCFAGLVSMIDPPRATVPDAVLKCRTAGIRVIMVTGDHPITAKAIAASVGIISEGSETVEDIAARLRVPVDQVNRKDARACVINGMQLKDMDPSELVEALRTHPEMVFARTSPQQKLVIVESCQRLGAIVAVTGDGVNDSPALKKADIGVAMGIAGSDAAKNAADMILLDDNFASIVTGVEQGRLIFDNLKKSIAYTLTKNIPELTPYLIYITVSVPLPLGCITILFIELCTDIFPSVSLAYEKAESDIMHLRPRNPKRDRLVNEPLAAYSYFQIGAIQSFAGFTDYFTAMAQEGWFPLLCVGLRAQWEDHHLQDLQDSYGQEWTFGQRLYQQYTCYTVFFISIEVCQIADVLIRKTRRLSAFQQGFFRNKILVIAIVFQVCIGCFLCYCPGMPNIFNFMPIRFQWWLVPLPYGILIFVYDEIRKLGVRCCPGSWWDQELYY
Sequence of gastric H^+, K^+-ATPase (P51164 whole entry partner): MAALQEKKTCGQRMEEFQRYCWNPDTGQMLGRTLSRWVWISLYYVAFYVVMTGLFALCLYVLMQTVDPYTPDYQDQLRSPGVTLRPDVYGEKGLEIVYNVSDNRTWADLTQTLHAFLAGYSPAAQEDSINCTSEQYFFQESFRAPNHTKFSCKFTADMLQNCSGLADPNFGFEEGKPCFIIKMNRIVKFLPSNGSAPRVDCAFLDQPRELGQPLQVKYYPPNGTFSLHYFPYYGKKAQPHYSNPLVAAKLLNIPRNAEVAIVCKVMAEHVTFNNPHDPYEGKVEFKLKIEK

average time intragastric pH is increased to over 4: 20.5 hours
Structure (SMILES): COc1ccnc(C[S+]([O-])c2nc3cc(-n4cccc4)ccc3[nH]2)c1C (stereo not shown) [Ilaprazole, 2-(4-methoxy-3-methyl-pyridin-2-ylmethanesulfinyl)-5-pyrrol-1-yl-1H-benzoimidazole]
